This is an account of results in US6867207B2, “IL-5 inhibiting 6-azauracil derivatives” (Janssen Pharmaceutica N.V., priority 1997, dated 2005).

By inhibition is commonly meant the drop in the measured response relative to a control, in per cent.

The first assay deals with IL-5 production. The assay can be described thus: In vitro inhibition of IL-5 production in human blood (phytohemagglutinin-stimulated whole blood, ELISA).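 Note: values marked with an asterisk were tested at 10 µM and unmarked values at 1 µM.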 The following applies: test dose 1×10^−6 M, 48 hours. Format: cell-based. In short, it runs like this:
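Heparinised blood from healthy male donors, diluted threefold in RPMI 1640, preincubated 60 min at 37° C with compound (0.02% DMSO vehicle), then stimulated with 2 μg/mL phytohemagglutinin for 48 h. Supernatant IL-5 measured by ELISA; percentage inhibition at 1×10^−6 M or 1×10^−5 M.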
A general note: ELISA stands for enzyme-linked immunosorbent assay.
Consider `O=c1cnn(-c2ccc(C(Sc3nc4cccnc4s3)c3ccc(Cl)cc3)c(Cl)c2)c(=O)[nH]1` (racemic) [Compound 81], for which the “% inh. (percentage inhibition of IL-5 production)” value turned out to be 76%. Take `Cn1ccnc1C(O)(c1ccc(Cl)cc1)c1ccc(-n2ncc(=O)[nH]c2=O)cc1Cl.O` (racemic) [Compound 120, (±)-2-[3-chloro[4-[(4-chlorophenyl)hydroxy(1-methyl-1H-imidazol-2-yl)methyl]phenyl]-1,2,4-triazine-3,5(2H,4H)-dione monohydrate]: the “% inh. (percentage inhibition of IL-5 production)” value is 10%. On to `O=c1cnn(-c2cc(Cl)c(C(Sc3ncccn3)c3ccc(Cl)cc3)c(Cl)c2)c(=O)[nH]1` (single isomer, unassigned) [Compound 346], for which the “% inh. (percentage inhibition of IL-5 production)” value worked out at 86%.

Consider `COc1ccc(Br)c(-c2csc(C(c3ccc(Cl)cc3)c3c(Cl)cc(-n4ncc(=O)[nH]c4=O)cc3Cl)n2)c1` (racemic) [Comp 25], for which the “% inh. (percentage inhibition of IL-5 production)” value worked out at 88%. Turning to `Nc1ccnc(SC(c2ccc(Cl)cc2)c2ccc(-n3ncc(=O)[nH]c3=O)cc2Cl)n1` (racemic) [Compound 343], the “% inh. (percentage inhibition of IL-5 production)” value is reported as 66%. Take `O=c1cnn(-c2cc(Cl)c(C(c3ccc(Cl)cc3)c3nnc(-c4cccnc4)o3)c(Cl)c2)c(=O)[nH]1` (racemic) [Compound 201]: the “% inh. (percentage inhibition of IL-5 production)” value was 87%.

For `O=c1cnn(-c2ccc(C(SC3=NCCS3)c3ccc(Cl)cc3)c(Cl)c2)c(=O)[nH]1` (racemic) [Compound 78], the “% inh. (percentage inhibition of IL-5 production)” value was determined as 70%. The same measure, in the same setting: with `O=c1cnn(-c2ccc(C(C3=C(c4ccccc4)SC4=NCCN43)c3ccc(Cl)cc3)c(Cl)c2)c(=O)[nH]1` (stereo not shown) [Comp 433] the figure was 53%; with `O=c1cnn(-c2cc(Cl)c(C(Sc3nccc(NC(CO)CO)n3)c3ccc(Cl)cc3)c(Cl)c2)c(=O)[nH]1` (racemic) [Compound 361], 28%; with `O=c1cnn(-c2cc(Cl)c(C(c3ccc(Cl)cc3)c3nc4ccccc4s3)c(Cl)c2)c(=O)[nH]1` (stereo not shown) [Comp 421], 86%. With `O=c1cnn(-c2ccc(C(c3ccc(Cl)cc3)c3ccccn3)c(Cl)c2)c(=O)[nH]1` (stereo not shown) [Comp 114], the “% inh. (percentage inhibition of IL-5 production)” value was found to be 40%. Regarding `Cc1nc(C(c2ccc(Cl)cc2)c2ccc(-n3ncc(=O)[nH]c3=O)cc2Cl)c(-c2ccccc2)s1` (racemic) [Compound 369], the “% inh. (percentage inhibition of IL-5 production)” value is on record as 66%. Turning to `O=c1cnn(-c2ccc(C(c3ccc(Cl)cc3)c3noc(-c4ccccc4)n3)c(Cl)c2)c(=O)[nH]1` (racemic) [Comp 107], the “% inh. (percentage inhibition of IL-5 production)” value is given as 81%.

In the case of `O=c1cnn(-c2cc(Cl)c(C(c3ccc(Cl)cc3)c3nnc(-c4ccccc4)o3)c(Cl)c2)c(=O)[nH]1` (stereo not shown) [Compound 189, (A)-2-[3,5-dichloro-4-[(4-chlorophenyl)(5-phenyl-1,3,4-oxadizol-2-yl)methyl]phenyl]-1,2,4-triazine-3,5(2H,4H)-dione], the “% inh. (percentage inhibition of IL-5 production)” value is on record as 82%.

For `O=C(Cc1sc(C(c2ccc(Cl)cc2)c2c(Cl)cc(-n3ncc(=O)[nH]c3=O)cc2Cl)nc1-c1ccccc1)NC1CCN(Cc2ccccc2)CC1` (racemic) [Comp 326], the “% inh. (percentage inhibition of IL-5 production)” value came out at 89%. With `COc1cccc(-c2csc(C(c3ccc(Cl)cc3)c3c(Cl)cc(-n4ncc(=O)[nH]c4=O)cc3Cl)n2)c1` (racemic) [Comp 24], the “% inh. (percentage inhibition of IL-5 production)” value was 74%. Take `O=c1cnn(-c2cc(Cl)c(C(c3ccc(Cl)cc3)c3csc(-c4ccccc4Cl)n3)c(Cl)c2)c(=O)[nH]1` (racemic) [Compound 367]: the “% inh. (percentage inhibition of IL-5 production)” value was found to be 74%. Turning to `CCOC(=O)C(=O)Nc1cccc(-c2nnc(C(c3ccc(Cl)cc3)c3c(Cl)cc(-n4ncc(=O)[nH]c4=O)cc3Cl)o2)c1.O` (racemic) [Compound 219], the “% inh. (percentage inhibition of IL-5 production)” value came out at 8%. For the compound `CNC(=O)Cc1sc(C(c2ccc(Cl)cc2)c2c(Cl)cc(-n3ncc(=O)[nH]c3=O)cc2Cl)nc1-c1ccccc1` (racemic) [Comp 301], the “% inh. (percentage inhibition of IL-5 production)” value came out at 33%. Consider `Nc1cc(N)nc(SC(c2ccc(Cl)cc2)c2ccc(-n3ncc(=O)[nH]c3=O)cc2Cl)n1` (racemic) [Compound 70], for which the “% inh. (percentage inhibition of IL-5 production)” value is on record as 51%. As to `O=C(NC(c1ccc(Cl)cc1)c1ccc(-n2ncc(=O)[nH]c2=O)cc1Cl)c1ccccc1` (racemic) [Compound 47, (±)-N-[[2-chloro-4-(4,5-dihydro-3,5-dioxo-1,2,4-triazin-3(2H)-yl)phenyl](4-chlorophenyl)methyl]benzamide], the “% inh. (percentage inhibition of IL-5 production)” value is recorded as 33%. On the same count and under the same terms, with `O=c1cnn(-c2cc(Cl)c(C(c3ccc(Cl)cc3)c3nnc(-c4cccs4)o3)c(Cl)c2)c(=O)[nH]1` (racemic) [Compound 166] the figure was 87%; with `Cc1ccccc1-c1csc(C(c2ccc(Cl)cc2)c2c(Cl)cc(-n3ncc(=O)[nH]c3=O)cc2Cl)n1` (racemic) [Comp 243], 97%; with `Cc1sc(C(c2ccc(Cl)cc2)c2c(Cl)cc(-n3ncc(=O)[nH]c3=O)cc2Cl)nc1-c1ccccc1Cl` (racemic) [Comp 272], 87%.

As for `O=c1cnn(-c2ccc(C(Sc3nccs3)c3ccc(Cl)cc3)c(Cl)c2)c(=O)[nH]1` (racemic) [Compound 63], the “% inh. (percentage inhibition of IL-5 production)” value was determined as 68%. Regarding `O=c1cnn(-c2cc(Cl)c(C(Sc3nc4ccccc4o3)c3ccc(Cl)cc3)c(Cl)c2)c(=O)[nH]1` (stereo not shown) [Compound 383], the “% inh. (percentage inhibition of IL-5 production)” value was 78%.

Take `Cl.O.O=c1cnn(-c2cc(Cl)c(C(c3ccc(Cl)cc3)c3csc(-c4ccncc4)n3)c(Cl)c2)c(=O)[nH]1` (racemic) [Compound 366]: the “% inh. (percentage inhibition of IL-5 production)” value is 93%.

Take `O=c1cnn(-c2cc(Cl)c(C(Sc3nc(-c4cccs4)cs3)c3ccc(Cl)c(C(F)(F)F)c3)c(Cl)c2)c(=O)[nH]1` (stereo not shown) [Compound 390]: the “% inh. (percentage inhibition of IL-5 production)” value was 89%. On to `CCOC(=O)N1CCN(c2ccnc(SC(c3ccc(Cl)cc3)c3c(Cl)cc(-n4ncc(=O)[nH]c4=O)cc3Cl)n2)CC1` (racemic) [Compound 352], for which the “% inh. (percentage inhibition of IL-5 production)” value worked out at 85%.

As for `CN1CCC(Nc2ccnc(SC(c3ccc(Cl)cc3)c3c(Cl)cc(-n4ncc(=O)[nH]c4=O)cc3Cl)n2)CC1.Cl.O` (racemic) [Compound 354], the “% inh. (percentage inhibition of IL-5 production)” value worked out at 70%. Regarding `O=c1cnn(-c2cc(Cl)c(C(Sc3nc4ccccc4[nH]3)c3ccc(Cl)c(C(F)(F)F)c3)c(Cl)c2)c(=O)[nH]1` (stereo not shown) [Compound 396], the “% inh. (percentage inhibition of IL-5 production)” value is given as 28%. For the compound `CN1CCN(C(=O)c2sc(C(c3ccc(Cl)cc3)c3c(Cl)cc(-n4ncc(=O)[nH]c4=O)cc3Cl)nc2-c2ccccc2)CC1` (racemic) [Comp 304], the “% inh. (percentage inhibition of IL-5 production)” value was 35%. For `CC(c1ccc(Cl)c(F)c1)(c1nc(-c2ccccc2)cs1)c1c(Cl)cc(-n2ncc(=O)[nH]c2=O)cc1Cl` (racemic) [Comp 288], the “% inh. (percentage inhibition of IL-5 production)” value was 90%.

The same assay, now with this note: test dose 1×10^−6 M, 48 hours, read-out: % inh. (percentage inhibition of IL-5 production).
Consider `O=c1cnn(-c2cc(Cl)c(C(Sc3nccc(NCCO)n3)c3ccc(Cl)cc3)c(Cl)c2)c(=O)[nH]1` (racemic) [Compound 357, (±)-2-[3,5-dichloro-4-[(4-chlorophenyl)[[4-[(2-hydroxyethyl)amino]-2-pyrimidinyl]-thio]methyl]phenyl]-1,2,4-triazine-3,5(2H,4H)-dione], for which the inhibition at 1 µM was determined as 69%.
